{
  "source": "patent US9290541B2",
  "about": "“TCL1 peptides for immunotherapy” (Board of Regents, The University of Texas System, priority 2011, dated 2016)",
  "key": {"[1]": {"test_system": "autologous FL tumor cells", "assay": "Mechanism of cytotoxicity of TCL1-specific CTLs against autologous follicular lymphoma cells", "format": "cell-based, human", "conditions": "effector:target 20:1; 4 hour chromium-51 release; antibodies 10 μg/ml", "procedure": "FIG. 10: Mechanism of cytotoxicity of TCL1-specific CTLs against autologous follicular lymphoma cells. TCL1-specific T cells were generated from PBMC obtained from a FL patient and cultured with autologous FL tumor cells preincubated with or without 10 μg/ml of MHC class I, class II, and isotype control antibodies at a ratio of 20:1 (Effector:Target). A standard 4 hour chromium-51 release assay was performed. MHC class I but not MHC class II or isotype control antibodies inhibited the cytolysis autologous lymphoma cells."}, "HLA-A2": {"biological_target": "T1, HLA-A2 (Homo sapiens, UniProt P04439, D140Y/D185E/D98H/E176V/E277Q/G131W/G231S/I119V/I121R/I166T/I218V/L300P/L318F/N151K/N90K/P208A/P217A/Q86G/Q94H/R138H/R169H/T345S)", "T1 construct": "endogenous in cells; host or cells: T2 hybridoma cells (TAP-deficient, HLA-A2+)", "assay": "HLA-A2-binding assay (T2 binding index)", "conditions": "T2 cells, 20 μg/ml peptide, 24 hours", "procedure": "(§1) FIGS. 4A-D: TCL171-78 is the minimal HLA-A*0201-binding peptide. (FIG. 4A) TCL165-79 peptide-specific T cells derived from HLA-A2^+ normal donors were incubated in the presence or absence of T2 cells and TCL165-79 derived truncated peptides (SEQ ID NOS:1-2; SEQ ID NOS:12-17; SEQ ID NOS:3-11; and SEQ ID NO:18) Flu matrix peptide (FMP58-66) and Gag77-85 peptide were used as controls. After 18 hours, the production of IFN-γ was determined in the supernatants by ELISA. (FIG. 4B) T2 cells were incubated with TCL165-79-derived truncated peptides (SEQ ID NOS:1-2; SEQ ID NOS:12-17; SEQ ID NOS:3-11; and SEQ ID NO:18), and the HLA-A2 binding affinity of each peptide was determined by flow cytometry. The T2 binding index was calculated as described in Materials and Methods. […] (FIG. 4D) TCL165-79 peptide-specific CD8^+ T cells or irrelevant T-cell line were stained with TCL171-78 or HIV Gag77-85 tetramers and analyzed by flow cytometry. […]\nTAP-deficient T2 cells were incubated with 20 μg/ml of peptides and 3 μg/ml of β2-microglobulin (Sigma-Aldrich, Cat # M4890) for 24 hours at 37° C. and 5% CO2 in air. The cells were then stained with anti-HLA-A2 PE antibody (BD Biosciences, Cat #560168), and the level of HLA-A2 expression was determined by flow cytometry. […]"}, "CD8+ T cells": {"test_system": "CD8+ T cells", "assay": "Tetramer staining by flow cytometry", "format": "cell-based, human", "conditions": "for percentage of tetramer positive CD8+ T cells, median / percentage of tetramer positive CD8+ T cells, range: two in vitro stimulations with TCL165-79", "procedure": "FIGS. 4A-D: TCL171-78 is the minimal HLA-A*0201-binding peptide. (FIG. 4A) TCL165-79 peptide-specific T cells derived from HLA-A2^+ normal donors were incubated in the presence or absence of T2 cells and TCL165-79 derived truncated peptides (SEQ ID NOS:1-2; SEQ ID NOS:12-17; SEQ ID NOS:3-11; and SEQ ID NO:18) Flu matrix peptide (FMP58-66) and Gag77-85 peptide were used as controls. After 18 hours, the production of IFN-γ was determined in the supernatants by ELISA. (FIG. 4B) T2 cells were incubated with TCL165-79-derived truncated peptides (SEQ ID NOS:1-2; SEQ ID NOS:12-17; SEQ ID NOS:3-11; and SEQ ID NO:18), and the HLA-A2 binding affinity of each peptide was determined by flow cytometry. The T2 binding index was calculated as described in Materials and Methods. (FIG. 4C) TCL165-79 (SEQ ID NO:1) peptide-specific T cells were incubated with T2 cells pulsed with TCL165-79-derived truncated peptides (SEQ ID NO:1; SEQ ID NO:8; SEQ ID NO:10; SEQ ID NO:11; SEQ ID NO:18) or control HIV Gag77-85 peptide and a 4-hour ^51Cr-release cytotoxicity assay was performed. The percent specific lysis is shown. (FIG. 4D) TCL165-79 peptide-specific CD8^+ T cells or irrelevant T-cell line were stained with TCL171-78 or HIV Gag77-85 tetramers and analyzed by flow cytometry. The percentage of tetramer positive T cells is shown. Data in panels A-D are representative of three independent experiments each.\nFIGS. 6A-E: TCL171-78 peptide-specific T cells can be generated from lymphoma patients. (FIG. 6A) PBMC and tumor-infiltrating lymphocytes (TILs) derived from HLA-A2^+ patients with chronic lymphocytic leukemia (CLL) or follicular lymphoma (FL) were stimulated in vitro with TCL165-79 After five stimulations, IFN-γ production in response to TCL165-79 peptide was determined as in FIG. 3A. (FIG. 6B, FIG. 6E) The cytotoxic function of TCL165-79 peptide-specific T cells generated above was tested against T2 cells pulsed with TCL165-79 peptide or HIV Gag77-85 peptide (FIG. 6B) or primary autologous or allogeneic HLA-A2^+ or HLA-A2^− mantle cell lymphoma (MCL Tu) or FL tumor cells (FL Tu) or tumor-free PBMC from MCL3 and FL5 patients (MCL3-PB and FL5-PB) or HLA-A2^+ MCF-7 cell line (FIG. 6E). (FIG. 6C) The percentage of tetramer positive CD8^+ T cells in each of the TCL1-specific T-cell lines generated from lymphoma patients is shown. (FIG. 6D) The expression of TCL1 in each of the primary lymphoma samples as determined by flow cytometry is shown. All cytotoxicity assays were performed in triplicate wells and mean and standard deviation are shown. CLL1-PB-T: TCL1-specific CTL generated from peripheral blood T cells of CLL patient 1; FL5-PB-T: TCL1-specific CTL generated from peripheral blood T cells of FL patient 5; FL5-TILs-T: TCL1-specific CTL generated from tumor infiltrating T cells of FL patient 5.\nFIGS. 7A-B: TCL171-78 peptide-specific T cells are increased in lymphoma patients. PBMCs from HLA-A2^+ normal donors (ND, n=8) or lymphoma patients [chronic lymphocytic leukemia (CLL, n=2), mantle cell lymphoma (MCL, n=5); follicular lymphoma (FL, n=4); diffuse large B-cell lymphoma (n=2); splenic marginal zone B-cell lymphoma (SMZL, n=2)] were stimulated in vitro twice with TCL165-79 peptide and stained with TCL171-78 tetramer or HIV Gag77-85 tetramer. Representative data of the tetramer staining (FIG. 7A) and results from all samples analyzed (FIG. 7B) are shown. P value on the top of graph represents comparison between normal donors and all lymphoma patient samples. P values to the right represent comparison between normal donors and patients from each lymphoma subtype. All P values were calculated by two-tailed Student's t test.\nFlow cytometry. For intracellular staining, tumor or normal B cells were first surface stained with CD3 and CD20 and then fixed and permeabilized using BD Biosciences Cytofix/Cytoperm™ Plus Fixation/Permeabilization kit as per manufacturer's instructions. […]"}, "T2 cells": {"test_system": "T2 cells", "assay": "4-hour 51Cr-release cytotoxicity assay with peptide-pulsed T2 cells", "format": "cell-based, human", "conditions": "4-hour 51Cr release", "procedure": "(§2) FIGS. 3A-E: TCL1-specific cytotoxic T cells can be generated from normal donors. (FIG. 3A) PBMCs from HLA-A2^+ normal donors were stimulated with overlapping 15-mer peptides spanning the entire length of the TCL1 protein (see Table 2). T cells from each condition were washed and incubated with autologous CD3-depleted PBMC as antigen-presenting cells (APC) in the presence or absence of the corresponding peptide. After 18 hours, the production of IFN-γ was determined in the supernatants by ELISA. Asterisk indicates significant IFN-γ production compared with control (P<0.05). Representative data from one of three normal donors tested is shown. (FIG. 3B) T cell lines generated from HLA-A2^+ normal donors using TCL165-79 peptide were incubated with APC in the presence or absence of the TCL165-79 peptide or control HIV Gag77-85 peptide, and intracellular cytokine assay was performed. The percentage of CD4^+ and CD8^+ T cells producing IFN-γ are shown. (FIG. 3C) TCL165-79 peptide-specific T cells were incubated with T2 cells or EBV-transformed B lymphoblastoid cell lines (IHW1003, IHW1019, IHW1089, and IHW1135) mismatched at their MHC class I locus in the presence of the TCL165-79 peptide or control HIV Gag77-85 peptide. IFN-γ production was determined as in (FIG. 3A). The HLA-A alleles for each of the cell lines are shown. (FIG. 3D, FIG. 3E) A 4-hour ^51Cr-release cytotoxicity assay was performed. TCL165-79 peptide-specific T cells were incubated with T2 cells alone or T2 cells pulsed with TCL165-79 peptide or control HIV Gag77-85 peptide, at various effector:target ratios. For MHC blocking assay, an effector:target ratio of 20:1 was used in the presence or absence of isotype control antibody or blocking antibodies against MHC class I, MHC class II, HLA-A2, or HLA-B and C. All cytotoxicity assays were performed in triplicate wells and mean and standard deviation are shown.\nas §1\n(§3) FIGS. 6A-E: TCL171-78 peptide-specific T cells can be generated from lymphoma patients. (FIG. 6A) PBMC and tumor-infiltrating lymphocytes (TILs) derived from HLA-A2^+ patients with chronic lymphocytic leukemia (CLL) or follicular lymphoma (FL) were stimulated in vitro with TCL165-79 After five stimulations, IFN-γ production in response to TCL165-79 peptide was determined as in FIG. 3A. […]"}, "[2]": {"test_system": "TCL165-79 peptide-specific T cells", "assay": "IFN-γ ELISA of peptide-specific T cells with peptide-pulsed T2 cells or B lymphoblastoid cell lines", "format": "cell-based, human", "conditions": "normal donor-derived T cells; 18 hours", "procedure": "as §2, with “All cytotoxicity assays were performed in triplicate wells and mean and standard deviation are shown.” left out\nas §1, with “(FIG. 4A) TCL165-79 peptide-specific T cells derived from HLA-A2^+ normal donors were incubated in the presence or absence of T2 cells and TCL165-79 derived truncated peptides (SEQ ID NOS:1-2; SEQ ID NOS:12-17; SEQ ID NOS:3-11; and SEQ ID NO:18) Flu matrix peptide (FMP58-66) and Gag77-85 peptide were used as controls.” left out\nas §3"}, "[3]": {"conditions": "PBMC of HLA-A2+ lymphoma patients (N=15)"}},
  "data": [
    {"compound": "C/C=C/[C@H]1O[C@@](O)([C@@H](C)[C@H](O)[C@H](C)[C@H]2OC(=O)/C(OC)=C/C(C)=C/[C@@H](C)[C@@H](O)[C@@H](CC)[C@@H](O)[C@H](C)C/C(C)=C/C=C/[C@@H]2OC)C[C@@H](O[C@H]2C[C@@H](O)[C@H](OC(N)=O)[C@@H](C)O2)[C@@H]1C", "note": "[Concanamycin A]", "values": [
      {"measurement": "inhibition of cytolysis of autologous lymphoma cells by TCL1-specific CTLs", "setting": "[1]", "value": "significantly inhibited"}
    ]},
    {"compound": "LLPIMWQL [TCL171-78]", "values": [
      {"measurement": "binding to HLA-A2", "setting": "HLA-A2", "value": "bound to HLA-A2"},
      {"measurement": "percentage of tetramer positive CD8+ T cells, median", "setting": "CD8+ T cells; [3]", "value": 2.8, "unit": "%"},
      {"measurement": "percentage of tetramer positive CD8+ T cells, range", "setting": "CD8+ T cells; [3]", "value": "0.88-6%"},
      {"measurement": "tetramer positive CD8+ T cells", "setting": "CD8+ T cells; T-cell lines from lymphoma patients, TCL171-78 tetramer", "value": "10.8-23%"},
      {"measurement": "percentage of tetramer positive CD8+ T cells, median", "setting": "CD8+ T cells; normal donor PBMC (N=8)", "value": 1.35, "unit": "%"},
      {"measurement": "percentage of tetramer positive CD8+ T cells, range", "setting": "CD8+ T cells; normal donor PBMC (N=8)", "value": "0.38-2.2%"},
      {"measurement": "tetramer positive TCL165-79 peptide-specific CD8+ T cells", "setting": "CD8+ T cells; normal donor-derived T cell line, TCL171-78 tetramer", "value": 8.2, "unit": "%"},
      {"measurement": "lysis of T2 cells pulsed with truncated peptides by TCL165-79 peptide-specific T cells", "setting": "T2 cells", "value": "specifically lysed"},
      {"measurement": "IFN-γ production by TCL165-79 peptide-specific T cells with T2 cells pulsed with truncated peptides", "setting": "[2]", "value": "induced significant IFN-γ production"}
    ]},
    {"compound": "LLPIMWQLY [TCL171-79]", "values": [
      {"measurement": "lysis of T2 cells pulsed with truncated peptides by TCL165-79 peptide-specific T cells", "setting": "T2 cells", "value": "specifically lysed"}
    ]},
    {"compound": "SLLPIMWQL [TCL170-79]", "values": [
      {"measurement": "lysis of T2 cells pulsed with truncated peptides by TCL165-79 peptide-specific T cells", "setting": "T2 cells", "value": "specifically lysed"}
    ]}
  ]
}
